# Source: ChEMBL document CHEMBL2177021, “Flavaglines as potent anticancer and cytoprotective agents” (J Med Chem, 2012)
# Activity calls are given as the source filed them. The rule behind the calls is not given here.
# Tests used:
# KB = conditions: Homo sapiens, 72 h
# HCT-116 = conditions: Homo sapiens, HCT-116, 72 h
# [1] = Cytotoxicity against human HL60R cells overexpressing Pgp incubated for 72 hrs by MTS assay
# HL-60 = test: cells; conditions: Homo sapiens, HL-60, 72 h
# Description: Cytotoxicity against human HL60 cells incubated for 72 hrs by MTS assay
# H9c2 [2] = test: Cardioprotection in rat H9c2 cells assessed as reduction in doxorubicin-induced toxicity at 100 nM pre-treated 10 hrs before doxorubicin challenge and measured 14 hrs post doxorubicin challenge by propidium iodide and annexin V staining; assay type: functional, cell-based
# H9c2 [3] = test: Cardioprotection in rat H9c2 cells assessed as reduction in doxorubicin-induced toxicity at 10 nM pre-treated 10 hrs before doxorubicin challenge and measured 14 hrs post doxorubicin challenge by propidium iodide and annexin V staining; assay type: functional, cell-based
# Rattus norvegicus [4] = species: Rattus norvegicus; test: Neuroprotection in Wistar rat DA neurons assessed as reduction in MPP+-induced neurotoxicity at 0.1 to 1000 nM pre-treated 1 day before MPP+ by tyrosine hydroxylase detection based immunocytochemistry; assay type: functional
# Rattus norvegicus [5] = species: Rattus norvegicus; test: Neuroprotection in Wistar rat DA neurons assessed as reduction in MPP+-induced neurotoxicity at 1 nM pre-treated 1 day before MPP+ by tyrosine hydroxylase detection based immunocytochemistry; assay type: functional
# [6] = Toxicity in mouse cerebellar granule neurons assessed as induction of apoptosis at 0.25 to 10 nM incubated for 48 hrs by MTT assay; conditions: cerebellar granule neurone, 0.01 µM
# [7] = system: Cerebellar granule neurone; test: Neuroprotection in mouse cerebellar granule neurons assessed as reduction in cisplatin-induced neurotoxicity at 5 nM incubated simultaneously with cisplatin for 48 hrs by MTT assay; assay type: functional
# Rattus norvegicus [8] = species: Rattus norvegicus; test: Neuroprotection in Wistar rat DA neurons assessed as reduction in MPP+-induced neurotoxicity at 10 uM pre-treated 1 day before MPP+ by tyrosine hydroxylase detection based immunocytochemistry; assay type: functional
# Rattus norvegicus [9] = species: Rattus norvegicus; test: Neuroprotection in Wistar rat DA neurons assessed as reduction in MPP+-induced neurotoxicity at 100 nM pre-treated 1 day before MPP+ by tyrosine hydroxylase detection based immunocytochemistry; assay type: functional
# [10] = system: Cerebellar granule neurone; test: Neuroprotection in mouse cerebellar granule neurons assessed as reduction in cisplatin-induced neurotoxicity at 10 nM incubated simultaneously with cisplatin for 48 hrs by MTT assay; assay type: functional
# Rattus norvegicus [11] = species: Rattus norvegicus; test: Neuroprotection in Wistar rat DA neurons assessed as reduction in MPP+-induced neurotoxicity at 1 to 100 nM pre-treated 1 day before MPP+ by tyrosine hydroxylase detection based immunocytochemistry; assay type: functional
# Rattus norvegicus [12] = species: Rattus norvegicus; test: Neuroprotection in Wistar rat DA neurons assessed as reduction in MPP+-induced neurotoxicity at 10 nM pre-treated 1 day before MPP+ by tyrosine hydroxylase detection based immunocytochemistry; assay type: functional
# Mus musculus [13] = species: Mus musculus; test: Cardioprotective effect in mouse assessed as attenuation of cardiac fibrosis by measuring reduction in mouse mortality; assay type: functional, Heart; parameters: scale not given: the % may be the effect or the level left
# Mus musculus [14] = species: Mus musculus; test: Cardioprotective effect in mouse assessed as attenuation of cardiomyocyte apoptosis by measuring reduction in mouse mortality; assay type: functional; parameters: scale not given: the % may be the effect or the level left
# Rattus norvegicus [15] = species: Rattus norvegicus; test: Neuroprotection in Wistar rat DA neurons assessed as reduction in MPP+-induced neurotoxicity at 1 to 1000 nM pre-treated 1 day before MPP+ by tyrosine hydroxylase detection based immunocytochemistry; assay type: functional
# [16] = system: Cerebellar granule neurone; test: Neuroprotection in mouse cerebellar granule neurons assessed as reduction in cisplatin-induced neurotoxicity at 1 to 5 nM incubated simultaneously with cisplatin for 48 hrs by MTT assay; assay type: functional
# [17] = system: Cerebellar granule neurone; test: Neuroprotection in mouse cerebellar granule neurons assessed as reduction in cisplatin-induced neurotoxicity at 0.25 to 10 nM incubated simultaneously with cisplatin for 48 hrs by MTT assay; assay type: functional
Structure (SMILES),IC50 (KB) [nM],IC50 (HCT-116) [nM],IC50 [1] [nM],IC50 (HL-60) [nM],Activity (H9c2 [2]),Activity (H9c2 [3]),other results
COC(=O)[C@H]1[C@@H](O)[C@@]2(O)c3c(OC)cc(OC)cc3O[C@@]2(c2ccc(OC)cc2)[C@@H]1c1cccc(F)c1,9.9,5.2,28,20,–,–,–
CC[C@]1(O)C[C@@H]2CN(CCc3c([nH]c4ccccc34)[C@@](C(=O)OC)(c3cc4c(cc3OC)N(C)[C@H]3[C@@](O)(C(=O)OC)[C@H](OC(C)=O)[C@]5(CC)C=CCN6CC[C@]43[C@@H]65)C2)C1 [VINBLASTINE],–,–,> 100,–,–,–,–
COC(=O)[C@H]1[C@@H](O)[C@@]2(O)c3c(OC)cc(OC)cc3O[C@@]2(c2ccc(Cl)cc2)[C@@H]1c1ccccc1,2.4,19,13,29,–,–,–
COc1cc(OC)c2c(c1)O[C@@]1(c3ccc(Br)cc3)[C@H](c3cccc(F)c3)C[C@H](NC(=O)CN(C)C)[C@@]21O,5.8,5,5.6,4.8,Active,Active,–
COC(=O)N[C@H]1C[C@@H](c2cccc(F)c2)[C@]2(c3ccc(Cl)cc3)Oc3cc(OC)cc(OC)c3[C@]12O,50,38,–,71,Active,–,Activity (Rattus norvegicus [4]): Active
COc1cc(OC)c2c(c1)O[C@@]1(c3ccc(Br)cc3)[C@H](c3cccc(F)c3)C[C@H](NC(=O)N(C)C)[C@@]21O,3.6,2.4,2.2,4.1,Active,Active,Activity (Rattus norvegicus [5]): Active; Activity (Rattus norvegicus [4]): Active; Activity [6]: Non-toxic
COc1ccc([C@@]23Oc4cc(OC)cc(OC)c4[C@]2(O)[C@H](O)C[C@H]3c2cccc(F)c2)cc1,41,23,60,94,Active,Active,Activity [7]: Active; Activity (Rattus norvegicus [8]): inactive; Activity (Rattus norvegicus [9]): Active; Activity [6]: Non-toxic; Activity [10]: inactive
COC(=O)[C@H]1[C@@H](O)[C@@]2(O)c3c(OC)cc(OC)cc3O[C@@]2(c2ccc(Br)cc2)[C@@H]1c1cccc(F)c1,2.8,2.4,14,3.2,–,–,Activity (Rattus norvegicus [11]): Active
COc1cc(OC)c2c(c1)O[C@@]1(c3ccc(Br)cc3)[C@H](c3cccc(F)c3)C[C@@H](O)[C@@]21O,10,5.3,3.1,8.9,Active,Active,–
COc1cc(OC)c2c(c1)O[C@@]1(c3ccc(Br)cc3)[C@H](c3cccc(F)c3)C[C@H](NC(N)=O)[C@@]21O,2.9,2.1,–,3.3,–,–,–
COc1cc(OC)c2c(c1)O[C@@]1(c3ccc(Br)cc3)[C@H](c3ccccc3)C[C@@H](O)[C@@]21O,2.4,5.8,4.5,3.8,Active,Active,Activity (Rattus norvegicus [12]): Active; Activity (Mus musculus [13]): 50%; Activity (Mus musculus [14]): 50%
COc1cc(OC)c2c(c1)O[C@@]1(c3ccc(Cl)cc3)[C@H](c3ccccc3)C[C@@H](O)[C@@]21O,6.6,4.6,2.4,5.9,Active,Active,–
COc1cc(OC)c2c(c1)O[C@@]1(c3ccc(Br)cc3)[C@H](c3cccc(F)c3)C[C@H](NC=O)[C@@]21O,3.5,1.9,1.4,3.4,–,Active,–
COc1cc(OC)c2c(c1)O[C@@]1(c3ccc(Cl)cc3)[C@H](c3cccc(F)c3)C[C@H](NC=O)[C@@]21O,10,8.2,–,13,Active,Active,–
COc1cc(OC)c2c(c1)O[C@@]1(c3ccc(Br)cc3)[C@H](c3cccc(F)c3)C[C@H](NC(=O)CO)[C@@]21O,37,22,42,31,Active,inactive,–
COc1cc(OC)c2c(c1)O[C@@]1(c3ccc(Br)cc3)[C@H](c3cccc(F)c3)C[C@H](NC(C)=O)[C@@]21O,8.4,7.5,7.1,10,inactive,Active,–
COc1cc(OC)c2c(c1)O[C@@]1(c3ccc(Br)cc3)[C@H](c3cccc(F)c3)[C@@H](C(N)=O)[C@@H](O)[C@@]21O,1.2,1.2,3.3,1.4,inactive,Active,–
COc1cc(OC)c2c(c1)O[C@@]1(c3ccc(Cl)cc3)[C@H](c3cccc(F)c3)C[C@H](NC(=O)N(C)C)[C@@]21O,2.1,1.9,–,3.2,Active,Active,Activity (Rattus norvegicus [12]): inactive
CCC(=O)N[C@H]1C[C@@H](c2cccc(F)c2)[C@]2(c3ccc(Br)cc3)Oc3cc(OC)cc(OC)c3[C@]12O,7.8,5.3,4.9,6.2,inactive,Active,–
COc1cc(OC)c2c(c1)O[C@@]1(c3ccc(Br)cc3)[C@H](c3ccccc3)C[C@H](NC=O)[C@@]21O,–,–,1.7,–,–,Active,Activity (Rattus norvegicus [15]): Active; Activity (Rattus norvegicus [11]): Active; Activity [6]: Non-toxic; Activity [16]: Active; Activity [17]: Active
CC(=O)O[C@@]12CO[C@@H]1C[C@H](O)[C@@]1(C)C(=O)[C@H](O)C3=C(C)[C@@H](OC(=O)[C@H](O)[C@@H](NC(=O)OC(C)(C)C)c4ccccc4)C[C@@](O)([C@@H](OC(=O)c4ccccc4)[C@H]21)C3(C)C [DOCETAXEL],–,–,531,–,–,–,–
